{"source": "patent US7476522B2", "about": "“Method for producing γ-linolenic acids from a ciliate culture by adding suitable precursor molecules to said culture medium” (Nutrinova Nutrition Specialties & Food Ingredients GmbH, priority 2001, dated 2009)", "key": {"[1]": {"test_system": "Tetrahymena thermophila B1868VII", "procedure": "(§1) Fermentations were carried out in a 1 l fermenter (700 ml working volume), 5 l fermenter (3 l working volume) and a 13 l fermenter (10 l working volume). The fermenters were equipped as standard with a pH electrode, a pO2 electrode, an aeration ring, a stirrer shaft with disk vein agitator, feed line for acid/alkali, feed line for feeding, inoculation fittings and sampling.\n(§2) Fermentation conditions were as specified in Table 2.\n(§3) To determine the biomass dry matter, 5 ml of cell culture were centrifuged for 10 min at 3400 g and 4° C., the supernatant was decanted and the cell pellet was frozen at −80° C. The frozen biomass was lyophilized and the weight of the biomass dry matter was determined.\n(§4) The cell density was determined using the CASY 1 Cell Counter+Analyser System, Model TTC, Schärfe System. For measurement, the cells were diluted (1:500) in a weak CASY electrolyte solution and transported through a capillary of 150 μm diameter. The cells in a range of 15-50 μm particle size were counted.\n(§5) The nonpolar lipid constituents (neutral lipids) were extracted from the biomass dry matter with n-hexane. For one batch, approximately 500 mg of biomass dry matter were stirred in 5 ml of n-hexane for 1 h at 60° C., then centrifuged for 2 min at 2700 g and the supernatant was purified by filtering off suspended matter. For the filtration, a Pasteur Pipette filled with cotton wool was used, having a fill height of approximately 1 cm. The cell residue for the first extraction was extracted a further time with 5 ml of solvent, the biomass was centrifuged off and the supernatant filtered. The purified organic phases of the two extractions were combined, the solvent was completely evaporated on a rotary evaporator and the amount of extracted lipid was determined by weighing.\n(§6) The fatty acid spectrum was determined by means of a gas chromatograph (HP GC 6890) equipped with a flame ionization detector (Hewlett-Packard Company, Wilmington, USA). The column used was an FFAP (Free Fatty Acid Phase) Permbond (Macherey & Nagel GmbH, Düren). The fatty acids were identified by comparison with the retention times of fatty acid methyl ester standards. On the basis of the known concentration of the standard, the concentration of fatty acids in the samples could be determined.\n(§7) 30-70 mg of the lyophilized biomass dry matter (see determination of biomass) were weighed out and were admixed with 1 ml of 20% strength methanolic HCl and 1 ml of methanolic standard solution (1 mg/ml). To liberate the fatty acids and transesterify them into fatty acid methyl esters, the samples were stirred in a closed test tube for two hours at 60° C. in a water bath and cooled to room temperature. To neutralize the sample, 1 ml of aqueous saturated sodium hydrogen carbonate solution was then added and the sample was mixed carefully. The fatty acid methyl esters were extracted by adding n-hexane. The batch was then mixed vigorously and phase separation was achieved by centrifuging for 2 min at 4300 rpm. About ⅔ of the upper organic phase was taken off and 1 μl of the sample was injected onto the GC column and analyzed (see also Table 5).\n(§8) The fermentations were carried out in a 1-l fermenter containing 700 ml of MM-Var medium."}, "[2]": {"test_system": "Tetrahymena thermophila B1868VII", "conditions": "for lipid content versus standard fermentation: NaAc feed", "procedure": "as §1, §2, §3, §4, §5, §6, §7, §8"}, "Tetrahymena pyriformis": {"test_system": "Tetrahymena pyriformis", "conditions": "cited from earlier work"}, "Tetrahymena": {"test_system": "Tetrahymena", "conditions": "supplying acetate; cited from earlier work"}, "[3]": {"conditions": "acetate added before inoculation and also during culture"}}, "note": "Read-outs that look alike come from different tables or passages of the source."}
{"molecule": "CC(=O)[O-].[Na+]", "note": "[NaAc, sodium acetate]", "values": [{"measurement": "cell growth (cell density and biomass dry matter)", "setting": "[1]", "result": "adversely affected cell growth"}, {"measurement": "formation of GLA product by volume", "setting": "[1]", "result": "decreased"}, {"measurement": "GLA content of the biomass dry matter", "setting": "[1]; 0.5 and 1.0 g/l NaAc in basal medium", "result": "not altered"}, {"measurement": "NL/BDM", "setting": "[1]; MM-VAR containing 0.5 g/l of NaAc, 46 h", "result": "8 %(w/w)"}, {"measurement": "NL/BDM", "setting": "[1]; MM-VAR containing 0.5 g/l of NaAc, 70 h", "result": "17 %(w/w)"}, {"measurement": "NL/BDM", "setting": "[1]; MM-VAR containing 1.0 g/l of NaAc, 46 h", "result": "11 %(w/w)"}, {"measurement": "NL/BDM", "setting": "[1]; MM-VAR containing 1.0 g/l of NaAc, 70 h", "result": "17 %(w/w)"}, {"measurement": "GLA content in the neutral lipid versus standard fermentation", "setting": "[1]; NaAc added to MM-Var basal medium", "result": "only slight differences"}, {"measurement": "NL content", "setting": "[1]; NaAc added to MM-Var basal medium, after 70 h, standard […]%", "result": "17 % (w/w)"}, {"measurement": "lipid content versus standard fermentation", "setting": "[1]; NaAc in basal medium, culture time 46 h", "result": "no significant difference"}, {"measurement": "GLA yield overall", "setting": "[1]; [3]", "result": "impairment"}, {"measurement": "fatty acid spectrum and GLA content of the biomass", "setting": "[1]; [3]", "result": "no marked change"}, {"measurement": "growth", "setting": "[1]; [3]", "result": "poorer growth"}, {"measurement": "cell growth (cell density and BDM)", "setting": "[2]", "result": "adverse effect on the cell growth"}, {"measurement": "formation of GLA product by volume", "setting": "[2]", "result": "impaired"}, {"measurement": "NL/BDM", "setting": "[2]; Feed 0.02 g/l of NaAc, 46 h", "result": "8 %(w/w)"}, {"measurement": "NL/BDM", "setting": "[2]; Feed 0.02 g/l of NaAc, 70 h", "result": "12 %(w/w)"}, {"measurement": "NL/BDM", "setting": "[2]; Feed 0.4 g/l of NaAc, 46 h", "result": "9 %(w/w)"}, {"measurement": "NL/BDM", "setting": "[2]; Feed 0.4 g/l of NaAc, 70 h", "result": "13 %(w/w)"}, {"measurement": "GLA content of the biomass dry matter", "setting": "[2]; NaAc fed during culturing", "result": "unchanged"}, {"measurement": "lipid content versus standard fermentation", "setting": "[2]; after 70 h", "result": "no significant increase"}, {"measurement": "lipid content versus standard fermentation", "setting": "[2]; culture time 46 h", "result": "no difference"}, {"measurement": "cell count", "setting": "Tetrahymena pyriformis; 0.1% acetate added to basal medium which does not contain glucose, […]10^5 without", "result": "1.6×10^5 cells per ml"}, {"measurement": "cell count", "setting": "Tetrahymena pyriformis; acetate, basal medium which contains glucose, 1.85×10^5 without", "result": "1.9×10^5 cells per ml"}, {"measurement": "composition of the fatty acids", "setting": "Tetrahymena", "result": "not changed"}]}
